Measurements taken from article PMC6407917, “Identification of GSK3186899/DDD853651 as a Preclinical Development Candidate for the Treatment of Visceral Leishmaniasis” (Journal of Medicinal Chemistry, 2018).

Key:
Test in all cases: biochemical
Parameters in all cases: species or system HEK293/K-562/placenta mixed human extract; Kinobeads chemoproteomic competition binding, quantified by TMT LC-MS/MS, dose response up to 20 uM
TYK2 = TYK2 (Homo sapiens, UniProt P29597)
PRKCI = PRKCI (Homo sapiens, UniProt P41743)
PRKD2 = PRKD2 (Homo sapiens, UniProt Q9BZL6)
BUB1 = BUB1 (Homo sapiens, UniProt O43683)
EPHB1 = EPHB1 (Homo sapiens, UniProt P54762)
MAP3K4 = MAP3K4 (Homo sapiens, UniProt Q9Y6R4)
GSK3B = GSK3B (Homo sapiens, UniProt P49841)
STK17A = STK17A (Homo sapiens, UniProt Q9UEE5)
WNK1 = WNK1 (Homo sapiens, UniProt Q9H4A3)
STK4 = STK4 (Homo sapiens, UniProt Q13043)
STK4, sequence (Q13043 whole entry): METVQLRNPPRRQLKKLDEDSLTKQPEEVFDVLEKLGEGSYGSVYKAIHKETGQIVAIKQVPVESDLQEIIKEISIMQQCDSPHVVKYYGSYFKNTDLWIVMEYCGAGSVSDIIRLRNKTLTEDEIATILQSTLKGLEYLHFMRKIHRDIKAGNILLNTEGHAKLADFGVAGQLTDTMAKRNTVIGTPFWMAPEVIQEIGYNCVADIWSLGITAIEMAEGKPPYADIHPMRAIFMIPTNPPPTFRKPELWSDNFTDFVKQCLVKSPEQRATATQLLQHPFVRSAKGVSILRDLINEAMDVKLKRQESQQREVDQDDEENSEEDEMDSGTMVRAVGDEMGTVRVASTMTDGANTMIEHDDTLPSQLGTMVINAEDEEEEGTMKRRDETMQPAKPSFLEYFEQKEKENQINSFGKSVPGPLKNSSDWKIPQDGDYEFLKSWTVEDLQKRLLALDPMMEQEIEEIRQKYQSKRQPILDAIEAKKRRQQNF

MARK3 = MARK3 (Homo sapiens, UniProt P27448)
MARK3, sequence (P27448 whole entry): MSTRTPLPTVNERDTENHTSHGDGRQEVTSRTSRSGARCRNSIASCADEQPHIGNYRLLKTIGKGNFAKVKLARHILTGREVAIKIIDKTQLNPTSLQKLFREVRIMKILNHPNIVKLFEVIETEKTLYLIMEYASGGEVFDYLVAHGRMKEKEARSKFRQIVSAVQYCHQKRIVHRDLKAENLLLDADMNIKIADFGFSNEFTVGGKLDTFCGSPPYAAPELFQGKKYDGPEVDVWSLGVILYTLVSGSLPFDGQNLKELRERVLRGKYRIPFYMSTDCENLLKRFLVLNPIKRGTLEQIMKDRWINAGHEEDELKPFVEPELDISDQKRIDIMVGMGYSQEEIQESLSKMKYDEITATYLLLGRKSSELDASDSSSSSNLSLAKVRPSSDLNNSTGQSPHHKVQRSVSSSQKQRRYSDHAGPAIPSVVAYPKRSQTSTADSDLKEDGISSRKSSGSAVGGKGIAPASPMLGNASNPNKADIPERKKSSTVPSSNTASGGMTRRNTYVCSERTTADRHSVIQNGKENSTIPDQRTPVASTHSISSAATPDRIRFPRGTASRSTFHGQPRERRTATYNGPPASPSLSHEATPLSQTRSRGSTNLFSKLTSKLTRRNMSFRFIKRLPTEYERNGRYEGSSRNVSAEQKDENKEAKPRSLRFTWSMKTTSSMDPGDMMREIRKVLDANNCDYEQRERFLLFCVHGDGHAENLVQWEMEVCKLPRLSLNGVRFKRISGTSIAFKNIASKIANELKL

AKT1 = AKT1 (Homo sapiens, UniProt P31749)
AKT1, sequence (P31749 whole entry): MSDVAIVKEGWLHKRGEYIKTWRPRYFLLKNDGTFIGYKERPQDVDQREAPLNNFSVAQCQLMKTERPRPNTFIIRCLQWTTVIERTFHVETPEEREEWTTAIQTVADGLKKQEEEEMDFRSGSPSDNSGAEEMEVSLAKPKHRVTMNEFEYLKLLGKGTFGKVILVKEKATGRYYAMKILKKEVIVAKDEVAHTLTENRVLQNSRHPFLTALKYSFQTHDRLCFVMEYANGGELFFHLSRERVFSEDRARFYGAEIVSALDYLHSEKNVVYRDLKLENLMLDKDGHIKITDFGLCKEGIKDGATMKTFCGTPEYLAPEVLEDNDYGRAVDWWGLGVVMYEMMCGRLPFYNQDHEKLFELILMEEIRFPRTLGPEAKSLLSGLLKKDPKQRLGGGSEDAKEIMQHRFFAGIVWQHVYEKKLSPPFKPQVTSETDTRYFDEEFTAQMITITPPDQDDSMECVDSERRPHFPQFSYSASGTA

MAP3K2 = MAP3K2 (Homo sapiens, UniProt Q9Y2U5)
MAPK14 = MAPK14 (Homo sapiens, UniProt Q16539)
MAPK14, sequence (Q16539 whole entry): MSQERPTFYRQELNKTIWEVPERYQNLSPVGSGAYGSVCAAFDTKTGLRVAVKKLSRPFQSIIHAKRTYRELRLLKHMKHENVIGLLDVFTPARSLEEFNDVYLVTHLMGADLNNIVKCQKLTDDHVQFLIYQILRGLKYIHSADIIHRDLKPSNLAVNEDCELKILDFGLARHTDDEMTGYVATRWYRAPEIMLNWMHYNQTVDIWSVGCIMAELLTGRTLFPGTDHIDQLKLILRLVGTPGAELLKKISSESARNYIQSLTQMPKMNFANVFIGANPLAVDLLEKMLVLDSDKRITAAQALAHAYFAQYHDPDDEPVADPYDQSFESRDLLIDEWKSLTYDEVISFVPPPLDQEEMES

MAP2K6 = MAP2K6 (Homo sapiens, UniProt P52564)
MAP2K6, sequence (P52564 whole entry): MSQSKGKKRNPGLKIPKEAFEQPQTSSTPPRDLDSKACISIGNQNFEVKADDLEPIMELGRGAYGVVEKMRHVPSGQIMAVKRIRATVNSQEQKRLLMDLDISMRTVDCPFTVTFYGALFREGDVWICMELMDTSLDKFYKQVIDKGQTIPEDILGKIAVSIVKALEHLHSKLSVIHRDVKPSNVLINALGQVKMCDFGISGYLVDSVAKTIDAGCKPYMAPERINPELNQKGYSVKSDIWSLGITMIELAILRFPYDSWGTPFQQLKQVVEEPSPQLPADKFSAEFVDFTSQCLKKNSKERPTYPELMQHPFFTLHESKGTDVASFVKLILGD

FGR = FGR (Homo sapiens, UniProt P09769)
DDR1 = DDR1 (Homo sapiens, UniProt Q08345)
TESK1 = TESK1 (Homo sapiens, UniProt Q15569)
FLT4 = FLT4 (Homo sapiens, UniProt P35916)
FLT4, sequence (P35916 whole entry): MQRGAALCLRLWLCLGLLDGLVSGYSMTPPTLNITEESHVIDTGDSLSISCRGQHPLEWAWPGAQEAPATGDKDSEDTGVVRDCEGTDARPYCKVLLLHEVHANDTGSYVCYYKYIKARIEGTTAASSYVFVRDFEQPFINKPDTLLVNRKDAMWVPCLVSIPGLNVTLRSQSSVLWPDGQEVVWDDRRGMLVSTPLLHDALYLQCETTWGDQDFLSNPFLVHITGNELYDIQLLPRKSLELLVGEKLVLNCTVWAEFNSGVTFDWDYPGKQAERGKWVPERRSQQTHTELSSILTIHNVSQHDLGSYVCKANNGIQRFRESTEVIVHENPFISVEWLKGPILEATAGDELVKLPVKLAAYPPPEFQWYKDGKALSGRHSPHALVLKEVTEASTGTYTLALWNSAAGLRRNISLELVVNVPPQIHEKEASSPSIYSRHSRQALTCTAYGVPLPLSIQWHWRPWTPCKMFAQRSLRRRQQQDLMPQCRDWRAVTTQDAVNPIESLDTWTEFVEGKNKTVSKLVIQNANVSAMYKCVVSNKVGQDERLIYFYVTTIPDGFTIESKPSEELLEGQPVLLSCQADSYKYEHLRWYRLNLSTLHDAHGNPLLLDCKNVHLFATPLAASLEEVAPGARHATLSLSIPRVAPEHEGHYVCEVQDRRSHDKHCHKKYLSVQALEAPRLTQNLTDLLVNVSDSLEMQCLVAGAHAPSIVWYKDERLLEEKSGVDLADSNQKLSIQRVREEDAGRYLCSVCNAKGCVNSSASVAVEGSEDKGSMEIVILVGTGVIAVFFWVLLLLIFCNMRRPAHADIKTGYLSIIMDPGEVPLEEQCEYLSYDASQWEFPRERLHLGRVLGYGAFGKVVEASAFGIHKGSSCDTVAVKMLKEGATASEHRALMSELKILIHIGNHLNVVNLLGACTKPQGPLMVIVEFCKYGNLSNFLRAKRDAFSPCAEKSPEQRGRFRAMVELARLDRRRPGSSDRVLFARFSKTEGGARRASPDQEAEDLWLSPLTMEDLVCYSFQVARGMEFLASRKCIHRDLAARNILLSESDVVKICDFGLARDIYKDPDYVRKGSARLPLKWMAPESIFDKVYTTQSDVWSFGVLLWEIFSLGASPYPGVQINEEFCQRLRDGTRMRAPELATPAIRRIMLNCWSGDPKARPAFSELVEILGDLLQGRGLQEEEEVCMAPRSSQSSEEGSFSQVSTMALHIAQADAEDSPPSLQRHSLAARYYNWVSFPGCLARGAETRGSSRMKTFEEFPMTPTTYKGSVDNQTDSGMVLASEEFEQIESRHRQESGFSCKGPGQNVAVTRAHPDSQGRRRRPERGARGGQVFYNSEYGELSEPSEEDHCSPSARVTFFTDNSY

PAK4 = PAK4 (Homo sapiens, UniProt O96013)
MAST2 = MAST2 (Homo sapiens, UniProt Q6P0Q8)

Measured: IC50

TYK2, sequence (P29597 whole entry): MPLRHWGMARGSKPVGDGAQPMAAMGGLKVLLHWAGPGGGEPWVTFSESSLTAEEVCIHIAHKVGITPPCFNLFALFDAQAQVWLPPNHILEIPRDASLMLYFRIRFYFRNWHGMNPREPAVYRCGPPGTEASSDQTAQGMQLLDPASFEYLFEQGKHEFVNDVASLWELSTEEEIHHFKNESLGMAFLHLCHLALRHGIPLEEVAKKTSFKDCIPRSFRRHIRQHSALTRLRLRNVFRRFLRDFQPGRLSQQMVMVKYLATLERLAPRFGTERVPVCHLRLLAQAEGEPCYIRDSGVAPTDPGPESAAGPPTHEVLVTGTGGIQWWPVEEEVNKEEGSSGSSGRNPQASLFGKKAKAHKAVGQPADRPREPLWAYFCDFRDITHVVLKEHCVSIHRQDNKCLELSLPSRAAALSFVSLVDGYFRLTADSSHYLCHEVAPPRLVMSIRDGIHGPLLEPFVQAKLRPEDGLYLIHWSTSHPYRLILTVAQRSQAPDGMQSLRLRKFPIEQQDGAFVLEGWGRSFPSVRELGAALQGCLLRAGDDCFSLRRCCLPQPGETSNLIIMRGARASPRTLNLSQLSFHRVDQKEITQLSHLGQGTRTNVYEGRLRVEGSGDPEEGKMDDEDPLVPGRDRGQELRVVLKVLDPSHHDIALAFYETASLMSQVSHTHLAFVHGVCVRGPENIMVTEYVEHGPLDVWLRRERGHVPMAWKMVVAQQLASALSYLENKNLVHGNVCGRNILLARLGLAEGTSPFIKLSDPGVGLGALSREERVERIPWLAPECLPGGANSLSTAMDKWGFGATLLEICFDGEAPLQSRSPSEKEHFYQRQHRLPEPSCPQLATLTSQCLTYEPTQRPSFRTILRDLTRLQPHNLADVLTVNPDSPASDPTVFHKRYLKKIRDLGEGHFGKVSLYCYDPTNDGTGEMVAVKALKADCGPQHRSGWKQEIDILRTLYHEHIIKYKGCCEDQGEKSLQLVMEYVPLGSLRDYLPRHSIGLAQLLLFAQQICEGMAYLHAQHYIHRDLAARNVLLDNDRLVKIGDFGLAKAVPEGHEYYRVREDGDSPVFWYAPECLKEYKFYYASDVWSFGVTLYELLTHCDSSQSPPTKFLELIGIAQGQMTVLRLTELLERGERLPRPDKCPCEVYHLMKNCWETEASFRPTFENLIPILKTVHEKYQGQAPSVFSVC

COc1ccccc1-c1n[nH]c2nc(N[C@H]3CC[C@H](NS(=O)(=O)CCC(F)(F)F)CC3)nc(OC)c12 [compound 31, 3,3,3-Trifluoro-N-(trans-4-((4-methoxy-3-(2-methoxyphenyl)-1H-pyrazolo[3,4-d]pyrimidin-6-yl)amino)cyclohexyl)propane-1-sulfonamide]
≥ 20 µM: all assays above
